Data as given in patent US8835440B2, “Cyclic pyrimidin-4-carboxamides as CCR2 receptor antagonists for treatment of inflammation, asthma and COPD” (Boehringer Ingelheim International GmbH, priority 2008, dated 2014).
pKi: −log10 of the molar value.

Molecular target: T1, CCR2 (Homo sapiens, UniProt P41597)
T1 construct: Membranes were prepared from THP-1 cells; endogenous in cells; host or cells: THP-1 cells (membrane preparation)
T1 sequence (P41597 1-360 isoform P41597-2): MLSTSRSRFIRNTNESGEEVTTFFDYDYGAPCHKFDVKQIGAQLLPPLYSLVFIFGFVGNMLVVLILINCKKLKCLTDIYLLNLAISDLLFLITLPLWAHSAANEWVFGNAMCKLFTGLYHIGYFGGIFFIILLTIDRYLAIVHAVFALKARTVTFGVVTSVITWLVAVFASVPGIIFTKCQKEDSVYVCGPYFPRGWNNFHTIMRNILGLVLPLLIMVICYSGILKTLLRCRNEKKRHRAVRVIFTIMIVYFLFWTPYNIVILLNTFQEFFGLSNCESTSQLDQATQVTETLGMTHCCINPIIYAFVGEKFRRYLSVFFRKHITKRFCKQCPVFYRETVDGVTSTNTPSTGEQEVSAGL
Assay: CCR2 receptor membrane binding assay ([125I]MCP-1, THP-1 cell membranes, SPA beads)
Details: for remaining activity at 10 µM: @ 10 μM test compound, THP-1 membranes, read-out: CCR2 % ctrl @ 10 μM; for pKi: dissociation constant hKi, [125I]MCP-1 binding to THP-1 membranes
Procedure, shortened: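 Human THP-1 monocytic cell membranes, pre-coupled to WGA-PVT SPA beads, were incubated with compound and [125I]MCP-1 (ca. 25000 cpm) in 25 mM HEPES pH 7.2, 5 mM MgCl2, 0.5 mM CaCl2, 0.2% BSA, at 1% DMSO final. Bound radioactivity was counted after 8 h, and Ki was obtained by iterative mass-action fitting.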

Cc1c(NCCc2ccc(Cl)c(Cl)c2)ncnc1C(=O)N1CCC(N2CCC(O)CC2)CC1 [Example 3]
remaining activity at 10 µM: 14%
pKi: 6.69

CCS(=O)(=O)N(C)C1CCN(C2CCN(C(=O)c3ncnc(NCC4CCN(c5ccccc5)CC4)c3C)CC2)CC1 [Example 40]
remaining activity at 10 µM: 9%
pKi: 6.76

COC1CCN(C2CCN(C(=O)c3ncnc(NCc4ccc(C(C)C)cc4)c3C)CC2)CC1 [Example 94]
remaining activity at 10 µM: 8%
pKi: 6.68

Cc1c(NCC2CCC(c3ccccc3)C2)ncnc1C(=O)N1CCC(N2CCC(N(C)S(C)(=O)=O)CC2)CC1 (stereo not drawn) [Example 159d]
pKi: 7.82

Cc1c(NCC2Cc3ccccc3C2)ncnc1C(=O)N1CCC(N2CCC(O)CC2)CC1 [Example 23]
remaining activity at 10 µM: 7%
pKi: 6.77

CCC(C)NC(=O)C1CCN(C2CCN(C(=O)c3ncnc(NCc4ccc(C(C)(C)C)cc4)c3C)CC2)CC1 (stereo not drawn) [Example 211]
remaining activity at 10 µM: 5%
pKi: 6.85

CC(=O)N1CCN(C2CCN(C(=O)c3ncnc(NCCc4ccc(Cl)c(Cl)c4)c3C)CC2)CC1 [Example 230]
remaining activity at 10 µM: 45%
pKi: 5.73

Cc1ccc([C@H]2CCC[C@@H](CNc3ncnc(C(=O)N4CCC(N5CCC(N(C)S(C)(=O)=O)CC5)CC4)c3C)C2)o1 [Example 159xb]
pKi: 8.22

Cc1c(NCc2cccc(Cl)c2)ncnc1C(=O)N1CCC(N2CCCCC2)CC1 [Example 140]
remaining activity at 10 µM: 16%
pKi: 6.16

Cc1c(NCCc2ccc(C(F)(F)F)cc2)ncnc1C(=O)N1CCC(N2CCC(O)CC2)CC1 [Example 12]
remaining activity at 10 µM: 29%
pKi: 6.18

Cc1c(NCc2ccc(Cl)c(Cl)c2)ncnc1C(=O)N1CCC(N2CCCCCC2)CC1 [Example 235]
remaining activity at 10 µM: 26%
pKi: 6.34

Cc1c(NCc2ccc(C(C)(C)C)cc2)ncnc1C(=O)N1CCC(N2CCC(Oc3ccc(F)c(F)c3)CC2)CC1 [Example 203]
remaining activity at 10 µM: 11%
pKi: 6.19

COc1ccc(C2CCCC(CNc3ncnc(C(=O)N4CCC(N5CCC(N(C)S(C)(=O)=O)CC5)CC4)c3C)C2)cc1 (stereo not drawn) [Example 159xa]
pKi: 7.68

Cc1c(NCC2Cc3ccccc3C2)ncnc1C(=O)N1CCC(N2CCC(NS(C)(=O)=O)CC2)CC1 [Example 73]
remaining activity at 10 µM: 2%
pKi: 7.42

Cc1c(NC[C@@H]2CCC[C@@H](c3ccccc3)C2)ncnc1C(=O)N1CCC(N2CCC(N(C)S(C)(=O)=O)CC2)CC1 [Example 158]
remaining activity at 10 µM: 0%
pKi: 8.22

Cc1c(NC2COc3ccccc3C2)ncnc1C(=O)N1CCC(N2CCC(O)CC2)CC1 (stereo not drawn) [Example 24]
remaining activity at 10 µM: 58%
pKi: 5.39

CCS(=O)(=O)NC1CCN(C2CCN(C(=O)c3ncnc(NCc4ccc(Cl)c(Cl)c4)c3C)CC2)CC1 [Example 195]
remaining activity at 10 µM: 14%
pKi: 6.85

Cc1c(NCCCc2ccccc2)ncnc1C(=O)N1CCC(N2CCC(O)CC2)CC1 [Example 17]
remaining activity at 10 µM: 18%
pKi: 6.52

Cc1c(NCC2CCc3ccccc3O2)ncnc1C(=O)N1CCC(N2CCC(N(C)S(C)(=O)=O)CC2)CC1 (stereo not drawn) [Example 159ob]
pKi: 6.93

CNC(=O)[C@@H]1CCN(C2CCN(C(=O)c3ncnc(NCc4ccc(Cl)c(Cl)c4)c3C)CC2)C1 [Example 260]
remaining activity at 10 µM: 20%
pKi: 6.31

Cc1cc(CNc2ncnc(C(=O)N3CCC(N4CCC(O)CC4)CC3)c2C)ccc1F [Example 118]
remaining activity at 10 µM: 41%
pKi: 5.67

CNC(=O)C1CCN(C2CCN(C(=O)c3ncnc(NCc4ccc(Cl)c(Cl)c4)c3C)CC2)CC1 [Example 186]
remaining activity at 10 µM: 8%
pKi: 7.11

Cc1c(NCC2CCC(c3nc4ccccc4[nH]3)CC2)ncnc1C(=O)N1CCC(N2CCC(N(C)S(C)(=O)=O)CC2)CC1 (stereo not drawn) [Example 159r]
pKi: 5.59

CCS(=O)(=O)N(C)C1CCN(C2CCN(C(=O)c3ncnc(NCc4ccc(Cl)c(F)c4)c3C)CC2)CC1 [Example 39]
remaining activity at 10 µM: 2%
pKi: 7.44

Cc1c(NCCc2ccc(Cl)c(Cl)c2)ncnc1C(=O)N1CCC(N2CCOCC2)CC1 [Example 279]
remaining activity at 10 µM: 9%
pKi: 6.72

Cc1nc(NCC2CCCN(c3ccccc3)C2)c(C)c(C(=O)N2CCC(N3CCC(N(C)S(C)(=O)=O)CC3)CC2)n1 (stereo not drawn) [Example 87]
remaining activity at 10 µM: 9%
pKi: 7.11

Cc1c(NCC2CCN(c3ccccc3)C2)ncnc1C(=O)N1CCC(N2CCC(N(C)S(C)(=O)=O)CC2)CC1 (stereo not drawn) [Example 60]
remaining activity at 10 µM: 5%
pKi: 7.36

Cc1c(NCc2ccc(Cl)c(F)c2)ncnc1C(=O)N1CCC(N2CCC(NS(C)(=O)=O)CC2)CC1 [Example 76]
remaining activity at 10 µM: 12%
pKi: 6.88

Cc1c(NCc2ccc(C(F)(F)F)c(Cl)c2)ncnc1C(=O)N1CCC(N2CCC(NS(C)(=O)=O)CC2)CC1 [Example 75]
remaining activity at 10 µM: 7%
pKi: 7.17

Cc1ccc(CNc2ncnc(C(=O)N3CCC(N4CCC(N(C)S(C)(=O)=O)CC4)CC3)c2C)cc1Cl [Example 59]
remaining activity at 10 µM: 5%
pKi: 7.26

Cc1c(NCc2ccc(Cl)c(Cl)c2)ncnc1C(=O)N1CCC(N2CCCC(O)CC2)CC1 (stereo not drawn) [Example 245]
remaining activity at 10 µM: 15%
pKi: 6.26

Cc1c(NCC2CCC(C(F)(F)F)CC2)ncnc1C(=O)N1CCC(N2CCC(O)CC2)CC1 (stereo not drawn) [Example 13]
remaining activity at 10 µM: 42%
pKi: 5.88

CC(=O)N(C)C1CCN(C2CCN(C(=O)c3ncnc(NCc4ccc(Cl)c(Cl)c4)c3C)CC2)CC1 [Example 194]
remaining activity at 10 µM: 25%
pKi: 6.31

CCOC1CCN(C2CCN(C(=O)c3ncnc(NCc4ccc(C(C)(C)C)cc4)c3C)CC2)CC1 [Example 198]
remaining activity at 10 µM: 1%
pKi: 7.24

CCS(=O)(=O)N(C)C1CCN(C2CCN(C(=O)c3ncnc(NCc4ccc(C(C)C)cc4)c3C)CC2)CC1 [Example 34]
remaining activity at 10 µM: 4%
pKi: 7.21

Cc1c(NCC2CCC(c3ccc(Cl)cc3)O2)ncnc1C(=O)N1CCC(N2CCC(N(C)S(C)(=O)=O)CC2)CC1 (stereo not drawn) [Example 159ab]
pKi: 7.57

Cc1c(NCc2cccc(-c3ccccc3)c2)ncnc1C(=O)N1CCC(N2CCCOCC2)CC1 [Example 243]
remaining activity at 10 µM: 40%
pKi: 5.79

CCN(C1CCN(C2CCN(C(=O)c3ncnc(NCc4ccc(Cl)c(Cl)c4)c3C)CC2)CC1)S(C)(=O)=O [Example 160]
remaining activity at 10 µM: 3%
pKi: 7.37

Cc1c(NCCc2ccc(Cl)c(Cl)c2)ncnc1C(=O)N1CCC(N2CCC[C@H](C(N)=O)C2)CC1 [Example 175]
remaining activity at 10 µM: 14%
pKi: 6.36

Cc1c(NCc2ccc(Cl)c(C(F)(F)F)c2)ncnc1C(=O)N1CCC(N2CCCCC2)CC1 [Example 142]
remaining activity at 10 µM: 8%
pKi: 6.28

Cc1c(NCC2CCC(c3ccccc3)CC2)ncnc1C(=O)N1CCC(N2CCCCC2)CC1 (stereo not drawn) [Example 138]
remaining activity at 10 µM: 6%
pKi: 6.84

Cc1c(NCc2ccc(C(C)(C)C)cc2)ncnc1C(=O)N1CCC(N2CCC(C#N)CC2)CC1 [Example 202]
remaining activity at 10 µM: 7%
pKi: 6.53

Cc1c(NCC2CCc3ccccc3N2)ncnc1C(=O)N1CCC(N2CCC(N(C)S(C)(=O)=O)CC2)CC1 (stereo not drawn) [Example 159gc]
pKi: 7.59

Cc1c(NCc2ccc(Cl)c(F)c2)ncnc1C(=O)N1CCC(N2CCC(N(C)S(C)(=O)=O)CC2)CC1 [Example 63]
remaining activity at 10 µM: 7%
pKi: 7.27

COC1CCN(C2CCN(C(=O)c3ncnc(NCC4CCN(c5ccccc5)CC4)c3C)CC2)CC1 [Example 96]
remaining activity at 10 µM: 21%
pKi: 6.03

Cc1c(NCc2ccc(C(C)(C)C)cc2)ncnc1C(=O)N1CCC(N2CCC(CNS(C)(=O)=O)CC2)CC1 [Example 199]
remaining activity at 10 µM: 9%
pKi: 6.27

Cc1c(NCc2ccc(Cl)c(Cl)c2)ncnc1C(=O)N1CCC(N2CCC(N3CCCC3=O)CC2)CC1 [Example 192]
remaining activity at 10 µM: 37%
pKi: 5.84

Cc1c(NCC2CCOCC2)ncnc1C(=O)N1CCC(N2CCC(N(C)S(C)(=O)=O)CC2)CC1 [Example 159ac]
pKi: 5.23

Cc1c(OCC2CCN(c3ccccc3)C2)ncnc1C(=O)N1CCC(N2CCC(N(C)S(C)(=O)=O)CC2)CC1 (stereo not drawn) [Example 295]
remaining activity at 10 µM: 0%
pKi: 6.85

Cc1nc(NCc2ccc(C(C)(C)C)cc2)c(C)c(C(=O)N2CCC(N3CC[C@@H](C(N)=O)C3)CC2)n1 [Example 267]
remaining activity at 10 µM: 20%
pKi: 6.31

Cc1c(NCC2CCN(c3ccccc3)CC2)ncnc1C(=O)N1CCC(N2CCC(O)CC2)CC1 [Example 113]
remaining activity at 10 µM: 46%
pKi: 5.48

Cc1c(NCC2CCCc3ccccc32)ncnc1C(=O)N1CCC(N2CCC(N(C)S(C)(=O)=O)CC2)CC1 (stereo not drawn) [Example 148]
remaining activity at 10 µM: 4%
pKi: 6.92

Cc1nc(NCC2CCN(c3ccccc3)C2)c(C)c(C(=O)N2CCC(N3CCC(N(C)S(C)(=O)=O)CC3)CC2)n1 (stereo not drawn) [Example 84]
remaining activity at 10 µM: 4%
pKi: 7.16

CCc1c(NCc2cccc(-c3ccccc3)c2)ncnc1C(=O)N1CCC(N2CCC(O)CC2)CC1 [Example 282]
remaining activity at 10 µM: 39%
pKi: 5.82

Cc1c(NCc2ccc(C(C)(C)C)cc2)ncnc1C(=O)N1CCC(N2CCC(c3ccncc3)CC2)CC1 [Example 201]
remaining activity at 10 µM: 6%
pKi: 7.00
